We go through 74 compounds from patent US6670382B2, “Hydroxyformamidine derivatives and medicines containing the same” (Taisho Pharmaceutical Co., Ltd., priority 2000, dated 2003).

A word on the IC50: it is the concentration that inhibits the measured activity by half. One may read the melting point as the temperature, or range, at which the solid turns liquid.

In series [1] the test system is 20-HETE synthase derived from rat kidney microsome. Kind of series: Inhibitory effect of 20-HETE synthase derived from rat kidney microsome. Format: biochemical. Particulars: SHR rat kidney microsome; for IC50: concentration at which 20-HETE production was inhibited to 50%; for Inhibition (1 µM): inhibition rate of 20-HETE production, subject compound 1 μM, 3H-arachidonic acid, NADPH, 1.5 hours at 37° C., pH 7.4. As for the experimental part:
[Inhibitory Effect of 20-HETE Synthase Derived from Rat Kidney Microsome]
Regarding the compounds listed in the Table described above, their inhibitory activities on production of 20-HETE were examined.
This examination was carried out based on the method described in J. Pharmacol. Exp. Ther., Vol. 268, p. 474 (1994).
The subject compound in an amount of 1 μM was added to a 50 mM of 3-morpholinopropanesulfonic acid buffer (MOPS) (pH 7.4), containing 5 mM of magnesium chloride, and 1 mM of ethylenediaminetetraacetic acid (EDTA) disodium salt.
Subsequently, the rat kidney microsome fraction prepared from the kidney of a spontaneously hypertensive rat (male, 6 weeks of age) as an enzyme, [5,6,8,9,11,12,14,15] tritium-arachidonic acid (supplied by Amasham) as a substrate, and NADPH (supplied by Sigma) as a coenzyme were added, and were reacted for 1.5 hours at 37° C.
After the reaction was quenched by adding formic acid (supplied by Wako Pure Chemical Industries Ltd.) to the reaction solution, acetonitrile (final concentration of 50%) was added thereto, and the mixture was allowed to stand for 1.5 hours at room temperature. The amount of 20-HETE production was measured by using a high performance liquid chromatography having a detector for radioactive substances (supplied by Gilson), equipped with an ODS column (Biocyl C18, supplied by Bio-rad).
Setting an amount of 20-HETE production to 100% when no subject compound was added, the inhibition rate (%) was calculated from the amount of 20-HETE production when a subject compound was added.
In addition, setting an amount of 20-HETE production to 100% when no subject compound was added, the concentration of the subject compound at which the production of the 20-HETE was inhibited to 50% when the subject compound is added (IC50 value) was also calculated.

Consider `CC1(C)OCC(COc2ccc(N/C=N/O)cn2)O1` (stereo not drawn) [Comp. 13], for which, in series [1], the IC50 amounted to 24 nM and the “Inhibition (1 µM)” value was determined as 101.0%.
On to `CCCCSc1ccc(N/C=N/O)cn1` [Comp. 105], for which the “Inhibition (1 µM)” value in series [1] was found to be 100.5%.
On to `COC(=O)CSc1ccc(N/C=N/O)cn1` [Comp. 108], for which, in series [1], the “Inhibition (1 µM)” value amounted to 89.7%.
For the compound `O/N=C/Nc1ccc(OCc2ccccc2CCc2ccccc2)nc1` [Comp. 75], the “Inhibition (1 µM)” value in series [1] is 88.5%.
With `CCSCCOc1ccc(N/C=N/O)cn1` [Comp. 28], in series [1], the 50% inhibitory concentration (IC50) came out at 9.9 nM and the “Inhibition (1 µM)” value is on record as 105.0%.
`O/N=C/Nc1ccc(OCCCCCc2ccccc2)nc1` [Comp. 50]: in series [1], the “Inhibition (1 µM)” value is on record as 108.2%.
As for `O/N=C/Nc1ccc(OCC2CC3CCC2C3)nc1` (stereo not drawn) [Comp. 35], in series [1], the “Inhibition (1 µM)” value turned out to be 98.0%.
Regarding `O/N=C/Nc1ccc(OCC2CCC2)nc1` [Comp. 26], in series [1], the IC50 is 27.2 nM and the “Inhibition (1 µM)” value came out at 99.0%.
In the case of `CC(C)(C)CCOc1ccc(N/C=N/O)cn1` [Comp. 30], the “Inhibition (1 µM)” value in series [1] turned out to be 102.0%.
Take `CC1(C)COC(CCOc2ccc(N/C=N/O)cn2)OC1` [Comp. 34]: in series [1], half-maximal inhibition (IC50) was put at 7.6 nM and the “Inhibition (1 µM)” value was 89.0%.
`CC(C)(COc1ccc(N/C=N/O)cn1)CN1CCCCC1` [Comp. 134] yielded a melting point of 91 to 93 °C.
Still for that read-out and setting: under `O/N=C/Nc1ccc(OCc2ccccn2)nc1` [Comp. 6, N-[2-(pyridin-2-ylmethoxy)pyridin-5-yl]-N′-hydroxyformamidine] stands 153.5 to 155.5 °C.
As to `CCOC(=O)CCSc1ccc(N/C=N/O)cn1` [Comp. 118], the “Inhibition (1 µM)” value in series [1] was determined as 100.7%.
As to `COCCOCCOc1ccc(N/C=N/O)cn1` [Comp. 12], in series [1], the IC50 is 87.2 nM and the “Inhibition (1 µM)” value came out at 99.0%.
With `O/N=C/Nc1ccc(SCc2ccc(Cl)cc2)nc1` [Comp. 100], the “Inhibition (1 µM)” value in series [1] turned out to be 79.5%.
Regarding `CCCCCCSc1ccc(N/C=N/O)cn1` [Comp. 113], the “Inhibition (1 µM)” value in series [1] stood at 81.3%.
`Cc1ccc(CCOc2ccc(N/C=N/O)cn2)cc1` [Comp. 60]: the “Inhibition (1 µM)” value in series [1] stood at 109.9%.
On to `CC(C)=CCC/C(C)=C/COc1ccc(N/C=N/O)cn1` [Comp. 52], for which the “Inhibition (1 µM)” value in series [1] is on record as 108.7%.
Turning to `CCC(C)CCOc1ccc(N/C=N/O)cn1` (stereo not drawn) [Comp. 48], in series [1], the “Inhibition (1 µM)” value was determined as 102.8%.
As to `O/N=C/Nc1ccc(OCCSc2ccccn2)nc1` [Comp. 25], in series [1], 9.6 nM corresponded to half-maximal inhibition (IC50) and the “Inhibition (1 µM)” value is 71.0%.
Regarding `CC(=O)OCCOc1ccc(N/C=N/O)cn1` [Comp. 62], the “Inhibition (1 µM)” value in series [1] is 112.8%.
For the compound `CC(C)=CCC/C(C)=C\COc1ccc(N/C=N/O)cn1` [Comp. 51], the “Inhibition (1 µM)” value in series [1] is recorded as 111.0%.
`O/N=C/Nc1ccc(OCCCOc2ccccc2)nc1` [Comp. 36]: in series [1], the midpoint of inhibition, the IC50, lay at 2.7 nM and the “Inhibition (1 µM)” value was 104.0%.
As to `O/N=C/Nc1ccc(OCC2CC2)nc1` [Comp. 21], in series [1], the “Inhibition (1 µM)” value was found to be 73.0%.
On to `CCCCCCCCOc1ccc(N/C=N/O)cn1` [Comp. 44], for which, in series [1], the “Inhibition (1 µM)” value is 100.7%.
Still for that read-out and setting: with `Cc1cccc(COc2ccc(N/C=N/O)cn2)n1` [Comp. 41] the figure was 83.0%; with `O/N=C/Nc1ccc(OCCCCC2CCCCC2)nc1` [Comp. 29], 101.0%; with `CCCCCCCCCSc1ccc(N/C=N/O)cn1` [Comp. 115], 89.0%.
On to `C#CCCOc1ccc(N/C=N/O)cn1` [Comp. 20], for which, in series [1], the “Inhibition (1 µM)” value is recorded as 31.0%.
On to `Cn1c(=O)c2c(ncn2CCOc2ccc(N/C=N/O)cn2)n(C)c1=O` [Comp. 88], for which the “Inhibition (1 µM)” value in series [1] stood at 71.8%.
For the compound `O/N=C/Nc1ccc(OCCCc2cccnc2)nc1` [Comp. 33], in series [1], it took 2.1 nM to reach half-maximal inhibition (IC50) and the “Inhibition (1 µM)” value turned out to be 93.0%.
For `O/N=C/Nc1ccc(OCCCc2ccccc2)nc1` [Comp. 14], in series [1], the half-maximal inhibitory concentration (IC50) amounted to 1.5 nM and the “Inhibition (1 µM)” value is recorded as 104.0%.
For the compound `CCOC(=O)CSc1ccc(N/C=N/O)cn1` [Comp. 103], the “Inhibition (1 µM)” value in series [1] was determined as 79.9%.
Turning to `CC(C)=CCCC(C)CCOc1ccc(N/C=N/O)cn1` (stereo not drawn) [Comp. 70], in series [1], the “Inhibition (1 µM)” value turned out to be 108.1%.
Still for that read-out and setting: under `O/N=C/Nc1ccc(OCCOC2CCCCC2)nc1` [Comp. 27] stands 71.0%; under `CC(C)CCSc1ccc(N/C=N/O)cn1` [Comp. 106], 77.5%.
Take `O/N=C/Nc1ccc(OCCCc2ccncc2)nc1` [Comp. 37]: in series [1], it took 3.4 nM to reach half-maximal inhibition (IC50) and the “Inhibition (1 µM)” value is reported as 96.0%.
On the same counts, the results for `O/N=C/Nc1ccc(OCc2ccncc2)nc1` [Comp. 23] are 3.9 nM and 104.0%.
Take `O/N=C/Nc1ccc(SC2CCCCC2)nc1` [Comp. 101]: in series [1], the “Inhibition (1 µM)” value amounted to 91.8%.
In the case of `O/N=C/Nc1ccc(OCCC2CCCCC2)nc1` [Comp. 22], in series [1], the IC50 came to 2.1 nM and the “Inhibition (1 µM)” value worked out at 108.0%.
As for `CCOC(=O)CCCCCOc1ccc(N/C=N/O)cn1` [Comp. 68], in series [1], the “Inhibition (1 µM)” value was 102.6%.
The same measure, in the same setting: under `CCN(CC)CCOc1ccc(N/C=N/O)cn1` [Comp. 16] stands 60.0%.
On to `O/N=C/Nc1ccc(OCc2cccs2)nc1` [Comp. 15], for which, in series [1], the IC50 came out at 9.3 nM and the “Inhibition (1 µM)” value came out at 100.0%.
Take `CC(C)CCCOc1ccc(N/C=N/O)cn1` [Comp. 49]: the “Inhibition (1 µM)” value in series [1] is 107.1%.
Regarding `CCN(CCOc1ccc(N/C=N/O)cn1)c1cccc(C)c1` [Comp. 85], the “Inhibition (1 µM)” value in series [1] is given as 100.8%.
In turn, `CN(C)CCOc1ccc(N/C=N/O)cn1` [Comp. 131] registered a melting point of 105 to 106 °C.
`CCN(CC)CCOCCOc1ccc(N/C=N/O)cn1` [Comp. 122]: in series [1], it took 624 nM to reach half-maximal inhibition (IC50) and the “Inhibition (1 µM)” value is given as 99.6%.
Regarding `O/N=C/Nc1ccc(OCc2ccoc2)nc1` [Comp. 40], the “Inhibition (1 µM)” value in series [1] was 86.0%.
In the case of `CC(C)OCCOc1ccc(N/C=N/O)cn1` [Comp. 19], the “Inhibition (1 µM)” value in series [1] turned out to be 104.0%.
On to `Cc1ncsc1CCOc1ccc(N/C=N/O)cn1` [Comp. 17], for which, in series [1], the half-inhibitory concentration (IC50) is 2.1 nM and the “Inhibition (1 µM)” value stood at 100.0%.
As to `COc1ccc(CCCOc2ccc(N/C=N/O)cn2)cc1` [Comp. 64], the “Inhibition (1 µM)” value in series [1] is 100.7%.
As to `O/N=C/Nc1ccc(OCc2cccc(Oc3ccccc3)c2)nc1` [Comp. 76], in series [1], the “Inhibition (1 µM)” value worked out at 100.2%.
On to `CCCCCSc1ccc(N/C=N/O)cn1` [Comp. 112], for which the “Inhibition (1 µM)” value in series [1] turned out to be 101.5%.
Regarding `O/N=C/Nc1ccc(OCC2CCCCCC2)nc1` [Comp. 57], the “Inhibition (1 µM)” value in series [1] was determined as 114.2%.
Consider `COC(=O)c1ccc(COc2ccc(N/C=N/O)cn2)cc1` [Comp. 83], for which the “Inhibition (1 µM)” value in series [1] was determined as 98.8%.
Take `O/N=C/Nc1ccc(OCc2ccco2)nc1` [Comp. 3]: in series [1], the 50% inhibitory concentration (IC50) stood at 49.6 nM and the “Inhibition (1 µM)” value amounted to 102.0%.
For the compound `CCCCCCCSc1ccc(N/C=N/O)cn1` [Comp. 114], the “Inhibition (1 µM)” value in series [1] was 85.1%.
`COC(=O)CCSc1ccc(N/C=N/O)cn1` [Comp. 116]: the “Inhibition (1 µM)” value in series [1] came to 93.1%.
For `Cc1cccc(COc2ccc(N/C=N/O)cn2)c1` [Comp. 79], the “Inhibition (1 µM)” value in series [1] amounted to 100.6%.
Regarding `CC(C)(C)COc1ccc(N/C=N/O)cn1` [Comp. 39], in series [1], the “Inhibition (1 µM)” value stood at 62.0%.
Turning to `O/N=C/Nc1ccc(OCC2CCCCC2)nc1` [Comp. 11], in series [1], 2.7 nM corresponded to half-maximal inhibition (IC50) and the “Inhibition (1 µM)” value was 89.0%.
On to `O/N=C/Nc1ccc(OCc2ccc(Cl)cc2Cl)nc1` [Comp. 74], for which, in series [1], the “Inhibition (1 µM)” value is on record as 69.3%.
In the case of `COC(=O)COc1ccc(N/C=N/O)cn1` [Comp. 86], the “Inhibition (1 µM)” value in series [1] was 82.6%.
On to `O/N=C/Nc1ccc(OCCSc2ccccc2)nc1` [Comp. 95], for which, in series [1], the “Inhibition (1 µM)” value is given as 96.5%.
The same measure, in the same setting: under `O/N=C/Nc1ccc(OCCCCc2ccccc2)nc1` [Comp. 71] stands 99.0%; under `CCCCCCCOc1ccc(N/C=N/O)cn1` [Comp. 43], 89.5%.
Same read-out and setting: with `O/N=C/Nc1ccc(OCCc2ccc(Br)cc2)nc1` [Comp. 67] the figure was 108.6%.
Take `O/N=C/Nc1ccc(OCc2ccsc2)nc1` [Comp. 38]: in series [1], it took 8.5 nM to reach half-maximal inhibition (IC50) and the “Inhibition (1 µM)” value was found to be 95.0%.
Regarding `C/C=C/C=C/COc1ccc(N/C=N/O)cn1` [Comp. 58], the “Inhibition (1 µM)” value in series [1] was determined as 106.6%.
On the same count and under the same terms, under `CC(C)=CCOc1ccc(N/C=N/O)cn1` [Comp. 18] stands 86.0%.
Same read-out and setting: with `O/N=C/Nc1ccc(OCc2ccc(-c3ccccc3)cc2)nc1` [Comp. 84] the figure was 105.3%; with `CCCCCCOc1ccc(N/C=N/O)cn1` [Comp. 42], 105.8%; with `COc1ccc(CCCOc2ccc(N/C=N/O)cn2)cc1OC` [Comp. 63], 102.3%.
For the compound `O/N=C/Nc1ccc(OCCn2cccc2)nc1` [Comp. 90], in series [1], the 50% inhibitory concentration (IC50) worked out at 4.3 nM and the “Inhibition (1 µM)” value amounted to 105.7%.
